Assay results published in patent US20050164924A1, “Method and composition for treating skin wounds with epidermal growth factor” (priority 2002, published 2005).
Where “and” joins values, the source holds several entries; their conditions need not be identical. Equal entries are not always repeated.

How the values were obtained:
diabetic foot ulcer = test: Randomized double-blind controlled trial of hEGF in diabetic foot ulcer healing; assay type: in vivo, human; conditions: for 100% Healed Time, mean survival time: Kaplan Meier; for healing rate by the end of 12 weeks: topical daily
Procedure: A randomized double-blind controlled trial was conducted to study the efficacy of human epidermal growth factor hEGF) in promoting diabetic foot ulcer healing with 88 patients. Predetermined criteria were used for patient selection, they were; ulcer grade 1-2, ulcer located below the ankle, adequate perfusion as indicated by an ankle brachial-index of ≧0.7. Patients were excluded if: sugar control was very poor (HbAlc≧12%), or had severe grade ulcers (≧3). Initial assessment and standard wound care and debridement was given as in an ordinary diabetic foot clinic. The patients were reviewed two weeks later. In the second consultation, patients whose ulcer healed more than 25% with conventional foot ulcer care were excluded. Informed consent was obtained from the remaining patients and randomization was done by drawing envelopes, although the patients were blind to the concentrations of hEGF during the experiments. The final candidates were randomly assigned into three groups: • 1. Group 1 were treated with Acetovegin® 5% cream alone, which has the following compositions as indicated in the package of the cream: 1 g of cream contains 2 mg (corresponding to dry mass) of deproteinized hemoderivative of calf blood, and 0.2 mg of benzalkonium chloride. There was no particular reason in choosing Acetovegin® 5% cream as the control other than this cream was available at the clinic where the experiments were conducted. • 2. Group 2 patients were treated with Acetovegin® 5% cream (with composition as stated above) plus 0.02% (g/g) hEGF. • 3. Group 3 patients were treated with Acetovegin® 5% cream (with composition as stated above) plus 0.04% (g/g) hEGF. All patients were followed up on a biweekly bass for wound care and debridement and trimming of keratosis. Antibiotic would be given if it was infected as indicated by purulent discharge or by positive bacterial culture. Photos of the wound's size were being taken for computer measurement and comparing with a reference area having a known size. Local application of study cream was applied and covered with sterile gauze. Patients were instructed to have daily normal saline dressing and local application of cream in the government out-patient-clinic or community nurse would be asked to have home visit for those with ambulatory problem. Wound parameters, such as exudates sign of infection granulation tissue and eschar were documented in each visit and complete healing was defined as full epithelialization of the wound with absence of discharge. Analysis was based on intention to treat and Kaplan Meier survival analysis was employed to compare the healing rate between different groups. One way ANOVA was used for clinical parameters analysis. If more than one wound was present in one patient the total areas of the ulcers was taken together and treated as one single wound. Of the 30 patients that suffered from unhealed ulcers they were randomly assigned into 3 groups as stated above: Group-1 (9/30), the control, was treated with Acetovegin® 5% cream alone; Group-2 (9/30) was treated with Acetovegin® 5% cream plus 0.02% (g/g) hEGF; Group-3, (14/32) Acetovegin® 5% cream plus 0.04% (g/g) hEGF. The end point of a treatment was defined as complete closure of the wound, whereas failure to heal was defined as incomplete healing after 12 weeks of treatment. The experiment in Example 1 was repeated using Acetovegin® 5% cream plus 0.03% (g/g) hEGF. 8 patients, named Group-4, were treated.

diabetes ulcers = test: Individuals suffering from prolonged diabetes ulcers treated with 0.04% hEGF composition; assay type: in vivo, human; conditions: 0.04% (g/g) hEGF
Procedure: Three patients suffering from prolonged diabetes ulcers were treated with the composition of this invention containing 0.04% (g/g) hEGF. The following results were observed, with all of the patients were healed after as short as four weeks treatment: […]

[1] = test system: right facial non-healing ulcer; test: Individual suffering from prolonged unhealed surgical wound; assay type: in vivo, human; conditions: Patient D
Text: Patient D was admitted for investigation of right facial non-healing ulcer after extraction of right mandibular molars and excision of facial fistula eleven months ago. […] There was sloughing of the right mandibular alveolus and the wound was tender. […] However, “definitively negative finding for malignancy nor basal cell carcinoma, quite normal looking oral epithelial mucosa” was reported by a pathologist. […] Patient was reviewed after two weeks of hEGF (0.04% (g/g)) local application. The composition is the same as that used in the above Group-3 patients. The right facial wound was healing, base of the wound looked fleshy with no discharge. The wound area decreased in size by about 30%.

bedsore = test: Individual suffering from bedsore; assay type: in vivo, human; conditions: 0.04% (g/g) EGF daily with normal saline dressing, after three-month treatment
Procedure: Patient B was bedridden at aged home for several years. […] They were referred to medical because the wound got worse with central grangrene after a two-month treatment.
They were then treated with Hibitane dressing for two weeks then normal saline dressing with the composition of this invention containing 0.04% (g/g) EGF daily.

burns = test: Treating burns with EGF; assay type: in vivo; conditions: 0.001% (g) of EGF
corneal and burn wounds = conditions: EGF 10 μg/ml; cited from earlier work
venous stasis ulcers = conditions: EGF 10 μg/ml; cited from earlier work
[2] = Patient A, after 2 weeks treatment
[3] = Patient A, after 3 weeks treatment
[4] = Patient B, after 3 weeks treatment
[5] = Patient B, after 5 weeks treatment
[6] = Patient B, after 9 weeks treatment
[7] = Patient C, after 4 weeks treatment
[8] = Patient C, after 6 weeks treatment

With human epidermal growth factor [hEGF] the total healing outcome (diabetic foot ulcer; 0.02% (g/g) EGF) was “may fail to achieve totally healing in some cases”, the “reduction of the time required to achieve 50% healing” value (diabetic foot ulcer; 0.02% (g/g) or 0.04% (g/g) EGF) was 2-4 weeks and the “results compared with 0.04% (g/g) EGF” value (diabetic foot ulcer; 0.03% (g/g) EGF) was “almost indistinguishable”. The total healing outcome (diabetic foot ulcer; 0.04% (g/g) EGF) was “all of the patients were totally healed after 12 wee”, the “50% Healed Time, mean survival time” value (diabetic foot ulcer; Group-2, 0.02% (g/g) hEGF) was 5.71±1.02 weeks and 5.71 weeks and the “50% Healed Time, median survival time” value (diabetic foot ulcer; Group-2, 0.02% (g/g) hEGF) was 6.00 weeks. The “100% Healed Time, mean survival time” value (diabetic foot ulcer; Group-2, 0.02% (g/g) hEGF) was 9.43±1.38 weeks and 9.43 weeks, the “100% Healed Time, median survival time” value (diabetic foot ulcer; Group-2, 0.02% (g/g) hEGF, limited to 12 weeks) was 12.00 weeks and the “healing rate by the end of 12 weeks” value (diabetic foot ulcer; Group-2: Acetovegin 5% cream plus 0.02% (g/g) hEGF) was 55%. The “50% Healed Time, mean survival time” value (diabetic foot ulcer; Group-3, 0.04% (g/g) hEGF) was 4.50±0.82 weeks and 4.50 weeks, the “50% Healed Time, median survival time” value (diabetic foot ulcer; Group-3, 0.04% (g/g) hEGF) was 4.00 weeks and the “100% Healed Time, median survival time” value (diabetic foot ulcer; Group-3, 0.04% (g/g) hEGF) was 6.00 weeks. For the same substance, the “100% Healed Time, mean survival time” value (diabetic foot ulcer; Group-3, 0.04% (g/g) hEGF) was 6.67 weeks, the “healing rate by the end of 12 weeks” value (diabetic foot ulcer; Group-3: Acetovegin 5% cream plus 0.04% (g/g) hEGF) was 100% and the “100% healing time, median survival time” value (diabetic foot ulcer; Group-4, 0.03% (g/g) hEGF) was 6 weeks. The “Cumulative Survival (unhealed fraction)” value (diabetic foot ulcer; Group-4, 0.03% (g/g) hEGF, 2 weeks) was 0.8750, the “Cumulative Survival (unhealed fraction)” value (diabetic foot ulcer; Group-4, 0.03% (g/g) hEGF, 4 weeks) was 0.6250 and the “Cumulative Survival (unhealed fraction)” value (diabetic foot ulcer; Group-4, 0.03% (g/g) hEGF, 6 weeks) was 0.5000. For the same substance, the “Cumulative Survival (unhealed fraction)” value (diabetic foot ulcer; Group-4, 0.03% (g/g) hEGF, 8 weeks) was 0.3750, the “Cumulative Survival (unhealed fraction)” value (diabetic foot ulcer; Group-4, 0.03% (g/g) hEGF, 10 weeks) was 0.2500 and the “Cumulative Survival (unhealed fraction)” value (diabetic foot ulcer; Group-4, 0.03% (g/g) hEGF, 12 weeks) was 0.1250. The “100% healing time, mean survival time (limited to 12)” value (diabetic foot ulcer; Group-4, Acetovegin 5% cream plus 0.03% (g/g) hEGF) was 7 weeks, the “Healing Rate” value (diabetes ulcers; [2]) was 36.25% and the “Ulcer Area” value (diabetes ulcers; [2]) was 1.02 cm^2. The “Healing Rate” value (diabetes ulcers; [3]) was 100%, the “Ulcer Area” value (diabetes ulcers; [3]) was 0 cm^2 and the “Healing Rate” value (diabetes ulcers; [4]) was 43.18%. The “Ulcer Area” value (diabetes ulcers; [4]) was 3.79 cm^2, the “Healing Rate” value (diabetes ulcers; [5]) was 75.71% and the “Ulcer Area” value (diabetes ulcers; [5]) was 1.62 cm^2. For the same substance, the “Healing Rate” value (diabetes ulcers; [6]) was 97.60%, the “Ulcer Area” value (diabetes ulcers; [6]) was 0.16 cm^2 and the “Healing Rate” value (diabetes ulcers; [7]) was 89.34%. For the same substance, the “Ulcer Area” value (diabetes ulcers; [7]) was 1.41 cm^2, the “Healing Rate” value (diabetes ulcers; [8]) was 100% and the “Ulcer Area” value (diabetes ulcers; [8]) was 0 cm^2. The “decrease of wound area in size” value ([1]; 0.04% (g/g) hEGF local application, after two weeks) was “about 30%”, the “reduction of wound in size” value ([1]; 0.04% hEGF applied locally, after 5 weeks) was “approximately 50%” and the wound outcome (bedsore) was “healed and completely closed”. The “effect on wound healing of burns” value (burns) was “effective in accelerating wound healing”, the “healing of corneal and burn wounds” value (corneal and burn wounds) was “promote healing” and the “epithelization in wounds of patients with venous stasis ulcers” value (venous stasis ulcers) was “failed to promote epithelization”.
